In PMC10819888, “Benzimidazole-Based Derivatives as Apoptotic Antiproliferative Agents: Design, Synthesis, Docking, and Mechanistic Studies” (Molecules, 2024):

Key:
Format in all cases: cell-based, human
MALME-3M = test: NCI-60 five-dose assay; settings: MALME-3M (Melanoma), 48 h
EKVX = test: NCI-60 five-dose assay; settings: EKVX (Non-Small Cell Lung Cancer), 48 h
Ovarian Cancer subpanel = test: NCI-60 five-dose assay, subpanel
Renal Cancer subpanel = test: NCI-60 five-dose assay, subpanel
COLO 205 = test: NCI-60 five-dose assay; settings: COLO 205 (Colon Cancer), 48 h
HCT-15 = test: NCI-60 five-dose assay; settings: HCT-15 (Colon Cancer), 48 h
NCI-H460 = test: NCI-60 five-dose assay; settings: NCI-H460 (Non-Small Cell Lung Cancer), 48 h
HOP-62 = test: NCI-60 five-dose assay; settings: HOP-62 (Non-Small Cell Lung Cancer), 48 h
Colon Cancer subpanel = test: NCI-60 five-dose assay, subpanel
SF-539 = test: NCI-60 five-dose assay; settings: SF-539 (CNS Cancer), 48 h
SW-620 = test: NCI-60 five-dose assay; settings: SW-620 (Colon Cancer), 48 h
CCRF-CEM = test: NCI-60 five-dose assay; settings: CCRF-CEM (Leukemia), 48 h
MDA-MB-468 = test: NCI-60 five-dose assay; settings: MDA-MB-468 (Breast Cancer), 48 h
MDA-MB-435 = test: NCI-60 five-dose assay; settings: MDA-MB-435 (Melanoma), 48 h
OVCAR-4 = test: NCI-60 five-dose assay; settings: OVCAR-4 (Ovarian Cancer), 48 h
M14 = test: NCI-60 five-dose assay; settings: M14 (Melanoma), 48 h
MDA-MB-231 = test: NCI-60 five-dose assay; settings: MDA-MB-231 (Breast Cancer), 48 h
NCI-H226 = test: NCI-60 five-dose assay; settings: NCI-H226 (Non-Small Cell Lung Cancer), 48 h
CNS Cancer subpanel = test: NCI-60 five-dose assay, subpanel
SF-295 = test: NCI-60 five-dose assay; settings: SF-295 (CNS Cancer), 48 h
UO-31 = test: NCI-60 five-dose assay; settings: UO-31 (Renal Cancer), 48 h
DU-145 = test: NCI-60 five-dose assay; settings: DU-145 (Prostate Cancer), 48 h
MOLT-4 = test: NCI-60 five-dose assay; settings: MOLT-4 (Leukemia), 48 h
NCI-H23 = test: NCI-60 five-dose assay; settings: NCI-H23 (Non-Small Cell Lung Cancer), 48 h
KM12 = test: NCI-60 five-dose assay; settings: KM12 (Colon Cancer), 48 h
[1] = Homo sapiens, read-out: GI50 Conc. per Cell Line
[2] = Homo sapiens, read-out: LC50 (the source's name)

O=C(NN=Cc1ccc(Cl)cc1)c1ccc2[nH]c(-c3ccc(Cl)cc3)nc2c1 [Compound 4e, N′-(4-Chlorobenzylidene)-2-(4-chlorophenyl)-1H-benzimidazole-5-carbohydrazide]
LC50 (MALME-3M; Homo sapiens): 6.41 µM
GI50 (MALME-3M; [1]): 1.55 µM
TGI (MALME-3M): 3.15 µM
TGI (EKVX): 3.68 µM
GI50 (EKVX; [1]): 1.82 µM
CC50 (EKVX; [2]): 7.43 µM
GI50 (Ovarian Cancer subpanel; Homo sapiens, Ovarian Cancer, average sensitivity of all subpanel cell lines, read-out: GI50 Subpanel MID b): 1.81 µM
GI50 Selectivity Ratio (MID a/MID b) (Ovarian Cancer subpanel; Ovarian Cancer subpanel): 0.99
GI50 (Renal Cancer subpanel; Homo sapiens, Renal Cancer, average sensitivity of all subpanel cell lines, read-out: GI50 Subpanel MID b): 1.77 µM
GI50 Selectivity Ratio (MID a/MID b) (Renal Cancer subpanel; Renal Cancer subpanel): 1.01
TGI (COLO 205): 3.25 µM
GI50 (COLO 205; [1]): 1.55 µM
CC50 (COLO 205; [2]): 8.82 µM
TGI (HCT-15): 3.03 µM
GI50 (HCT-15; [1]): 1.42 µM
CC50 (HCT-15; [2]): 6.46 µM
LC50 (NCI-H460; Homo sapiens): 6.3 µM
GI50 (NCI-H460; [1]): 1.56 µM
TGI (NCI-H460): 3.13 µM
TGI (HOP-62): 4.10 µM
GI50 (HOP-62; [1]): 1.8 µM
CC50 (HOP-62; [2]): 9.32 µM
GI50 Selectivity Ratio (MID a/MID b) (Colon Cancer subpanel; Colon Cancer subpanel): 1.04
GI50 (Colon Cancer subpanel; Homo sapiens, Colon Cancer, average sensitivity of all subpanel cell lines, read-out: GI50 Subpanel MID b): 1.72 µM
GI50 (SF-539; [1]): 1.7 µM
CC50 (SF-539; [2]): 5.93 µM
TGI (SF-539): 3.17 µM
LC50 (SW-620; Homo sapiens): 7.43 µM
GI50 (SW-620; [1]): 1.83 µM
TGI (SW-620): 3.69 µM
TGI (CCRF-CEM): 9.03 µM
GI50 (CCRF-CEM; [1]): 1.43 µM
CC50 (CCRF-CEM; [2]): 65.8 µM
LC50 (concentration killing 50% of cells) (MDA-MB-468; Homo sapiens): 6.36 µM
GI50 (MDA-MB-468; [1]): 1.64 µM
TGI (MDA-MB-468): 3.23 µM
GI50 (MDA-MB-435; [1]): 1.73 µM
CC50 (MDA-MB-435; [2]): 6.49 µM
TGI (MDA-MB-435): 3.35 µM
GI50 (OVCAR-4; [1]): 1.74 µM
CC50 (OVCAR-4; [2]): 6.23 µM
TGI (OVCAR-4): 3.29 µM
GI50 (M14; [1]): 1.65 µM
CC50 (M14; [2]): 8.96 µM
TGI (M14): 3.84 µM
GI50 (MDA-MB-231; [1]): 1.85 µM
CC50 (MDA-MB-231; [2]): 7.67 µM
TGI (MDA-MB-231): 3.77 µM
GI50 (NCI-H226; [1]): 1.77 µM
CC50 (NCI-H226; [2]): 6.86 µM
TGI (NCI-H226): 3.48 µM
GI50 Selectivity Ratio (MID a/MID b) (CNS Cancer subpanel; CNS Cancer subpanel): 0.92
GI50 (CNS Cancer subpanel; Homo sapiens, CNS Cancer, average sensitivity of all subpanel cell lines, read-out: GI50 Subpanel MID b): 1.94 µM
GI50 (SF-295; [1]): 1.86 µM
CC50 (SF-295; [2]): 6.56 µM
TGI (SF-295): 3.50 µM
GI50 (UO-31; [1]): 1.57 µM
CC50 (UO-31; [2]): 5.67 µM
TGI (UO-31): 2.99 µM
TGI (DU-145): 3.44 µM
GI50 (DU-145; [1]): 1.76 µM
CC50 (DU-145; [2]): 6.7 µM
GI50 (MOLT-4; [1]): 1.55 µM
CC50 (MOLT-4; [2]): 28.2 µM
TGI (MOLT-4): 4.81 µM
GI50 (NCI-H23; [1]): 1.93 µM
CC50 (NCI-H23; [2]): 10.8 µM
TGI (NCI-H23): 4.43 µM
GI50 (KM12; [1]): 2.03 µM
CC50 (KM12; [2]): 9.8 µM
TGI (KM12): 4.46 µM
